Reference: patent US7795261B2, “Substituted 1-piperidin-4-yl-4-pyrrolidin-3-yl-piperazine derivatives and their use as neurokinin antagonists” (Janssen Pharmaceutica NV, priority 2002, dated 2010)

Tests used:
Format in all cases: cell-based
[1] = target: T1, NK3 (Homo sapiens, UniProt P29371); assay: Signal transduction (ST), intracellular Ca++ (FLIPR), NK3; settings: read-out: pIC50 NK3 (converted)
T1 sequence (P29371 1-465): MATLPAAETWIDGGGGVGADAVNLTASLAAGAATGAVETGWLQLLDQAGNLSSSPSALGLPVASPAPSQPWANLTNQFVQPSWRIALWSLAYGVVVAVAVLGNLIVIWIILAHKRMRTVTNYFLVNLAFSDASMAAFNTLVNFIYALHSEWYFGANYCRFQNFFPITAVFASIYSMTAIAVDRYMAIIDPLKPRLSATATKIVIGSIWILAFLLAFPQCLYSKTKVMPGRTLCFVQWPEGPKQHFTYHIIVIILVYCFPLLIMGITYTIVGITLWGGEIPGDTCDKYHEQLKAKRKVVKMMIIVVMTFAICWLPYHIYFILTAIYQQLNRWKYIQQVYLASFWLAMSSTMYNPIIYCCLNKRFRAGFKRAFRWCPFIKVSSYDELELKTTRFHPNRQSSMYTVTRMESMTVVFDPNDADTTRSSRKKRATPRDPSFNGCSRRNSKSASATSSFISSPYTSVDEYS

[2] = target: T2, NK2 (Homo sapiens, UniProt P21452); assay: Signal transduction (ST), intracellular Ca++ (FLIPR), NK2; settings: read-out: pIC50 NK2 (converted)
T2 sequence (P21452 1-398): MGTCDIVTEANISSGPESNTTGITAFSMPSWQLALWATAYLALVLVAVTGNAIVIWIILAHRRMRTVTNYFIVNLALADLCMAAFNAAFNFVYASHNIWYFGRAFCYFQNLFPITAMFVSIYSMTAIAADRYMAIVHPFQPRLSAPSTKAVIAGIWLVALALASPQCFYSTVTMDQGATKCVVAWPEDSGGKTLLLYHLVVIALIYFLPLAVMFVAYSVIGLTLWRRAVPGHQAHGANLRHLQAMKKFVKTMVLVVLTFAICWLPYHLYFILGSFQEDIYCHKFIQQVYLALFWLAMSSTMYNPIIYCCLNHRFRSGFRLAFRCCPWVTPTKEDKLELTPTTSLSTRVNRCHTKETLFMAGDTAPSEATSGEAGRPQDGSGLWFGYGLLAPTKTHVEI
Description: [The procedure below names another target; the source lists this target under the same test.] This test evaluates in vitro functional NK1 antagonistic activity. For the measurements of intracellular Ca^++ concentrations the cells were grown on 96-well (black wall/transparent bottom) plates from Costar for 2 days until they reached confluence. The cells were loaded with 2 μM Fluo3 in DMEM containing 0.1% BSA and 2.5 mM probenecid for 1 h at 37° C. They were washed 3× with a Krebs buffer (140 mM NaCl, 1 mM MgCl2×6H2O, 5 mM KCl, 10 mM glucose, 5 mM HEPES; 1.25 mM CaCl2; pH 7.4) containing 2.5 mM probenecid and 0.1% BSA (Ca^++-buffer). The cells were preincubated with a concentration range of antagonists for 20 min at RT and Ca^++-signals after addition of the agonists were measured in a Fluorescence Image Plate Reader (FLIPR from Molecular Devices, Crawley, England). The peak of the Ca^++-transient was considered as the relevant signal and the mean values of corresponding wells were analysed as described below.
The sigmoidal dose response curves were analysed by computerised curve-fitting, using the GraphPad Program. […] For antagonist responses the IC50-value was calculated using non-linear regression.
The last columns indicates—without being limited therefore—for which the compounds might be most suitable. Of course, since for some neurokinin receptors no data was determined, it is obvious that these compounds might be attributed to another suitable use.

[3] = target: NK1 (Homo sapiens, UniProt P25103); assay: Signal transduction (ST), intracellular Ca++ (FLIPR), NK1 antagonistic activity; settings: read-out: pIC50 NK1 (converted)
How it was run: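 Antagonist IC50 was fitted by non-linear regression of peak intracellular Ca++ signals measured on FLIPR after agonist challenge. Beforehand, Fluo3-loaded confluent cells received antagonists over a concentration range for 20 min at room temperature in Ca++ Krebs buffer, pH 7.4.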

NK1, sequence (P25103 whole entry): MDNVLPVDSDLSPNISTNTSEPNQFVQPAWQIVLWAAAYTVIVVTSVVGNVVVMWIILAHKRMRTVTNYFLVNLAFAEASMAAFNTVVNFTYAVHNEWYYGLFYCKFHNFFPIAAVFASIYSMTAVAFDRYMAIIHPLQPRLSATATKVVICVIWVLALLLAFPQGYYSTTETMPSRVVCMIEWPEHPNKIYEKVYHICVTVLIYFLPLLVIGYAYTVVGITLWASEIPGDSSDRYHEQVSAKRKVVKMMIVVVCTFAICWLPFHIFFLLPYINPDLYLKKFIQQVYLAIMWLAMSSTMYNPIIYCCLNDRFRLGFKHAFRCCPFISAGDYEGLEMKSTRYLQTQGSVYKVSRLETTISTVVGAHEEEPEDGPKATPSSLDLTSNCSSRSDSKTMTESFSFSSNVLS

O=C(c1ccsc1)N1CCC(N2CCN(C3CCN(C(=O)c4cc(C(F)(F)F)cc(C(F)(F)F)c4)C(Cc4ccccc4)C3)CC2)C1 (single isomer, unassigned) [Compound 40]
IC50 [1]: 126 nM
IC50 [2]: 2510 nM
IC50 [3]: 7.94 nM

O=C(C1CC1)N1CCC(N2CCN(C3CCN(C(=O)c4cc(C(F)(F)F)cc(C(F)(F)F)c4)C(Cc4ccccc4)C3)CC2)C1 (single isomer, unassigned) [Compound 71]
IC50 [1]: 794 nM
IC50 [2]: 5010 nM
IC50 [3]: 20 nM

O=C(c1ccccc1Cl)N1CCC(N2CCN(C3CCN(C(=O)c4cc(C(F)(F)F)cc(C(F)(F)F)c4)C(Cc4ccccc4)C3)CC2)C1 (single isomer, unassigned) [Compound 159]
IC50 [1]: 631 nM
IC50 [2]: 6310 nM
IC50 [3]: 20 nM

O=C(c1ccccc1Cl)N1CCC(N2CCN(C3CCN(C(=O)c4cc(C(F)(F)F)cc(C(F)(F)F)c4)C(Cc4ccc(F)c(F)c4)C3)CC2)C1 (single isomer, unassigned) [Compound 211]
IC50 [1]: 200 nM
IC50 [2]: 1000 nM
IC50 [3]: 6.31 nM

O=C(C1CCOC1)N1CCC(N2CCN(C3CCN(C(=O)c4cc(C(F)(F)F)cc(C(F)(F)F)c4)C(Cc4ccccc4)C3)CC2)C1 (single isomer, unassigned) [Compound 216]
IC50 [1]: 1580 nM
IC50 [2]: 5010 nM
IC50 [3]: 10 nM

O=C(c1cccs1)N1CCC(N2CCN(C3CCN(C(=O)c4cc(C(F)(F)F)cc(C(F)(F)F)c4)C(Cc4ccc(F)c(F)c4)C3)CC2)C1 (single isomer, unassigned) [Compound 232]
IC50 [1]: 126 nM
IC50 [2]: 3160 nM
IC50 [3]: 6.31 nM

O=C(c1ccsc1)N1CCC(N2CCN(C3CCN(C(=O)c4cc(C(F)(F)F)cc(C(F)(F)F)c4)C(Cc4ccc(F)c(F)c4)C3)CC2)C1 (single isomer, unassigned) [Compound 238]
IC50 [1]: 158 nM
IC50 [2]: 1260 nM
IC50 [3]: 6.31 nM

O=C(c1c(Cl)cccc1Cl)N1CCC(N2CCN(C3CCN(C(=O)c4cc(C(F)(F)F)cc(C(F)(F)F)c4)C(Cc4ccc(F)c(F)c4)C3)CC2)C1 (single isomer, unassigned) [Compound 239]
IC50 [1]: 251 nM
IC50 [2]: 1000 nM
IC50 [3]: 10 nM

O=C(C1CCOC1)N1CCC(N2CCN(C3CCN(C(=O)c4cc(C(F)(F)F)cc(C(F)(F)F)c4)C(Cc4ccc(Cl)c(Cl)c4)C3)CC2)C1 (single isomer, unassigned) [Compound 249]
IC50 [1]: 5010 nM
IC50 [2]: 5010 nM
IC50 [3]: 50.1 nM

O=C(C1CC1)N1CCC(N2CCN(C3CCN(C(=O)c4cc(C(F)(F)F)cc(C(F)(F)F)c4)C(Cc4ccc(F)c(F)c4)C3)CC2)C1 (single isomer, unassigned) [Compound 252]
IC50 [1]: 501 nM
IC50 [2]: 1000 nM
IC50 [3]: 10 nM

Cc1nnsc1C(=O)N1CCC(N2CCN(C3CCN(C(=O)c4cc(C(F)(F)F)cc(C(F)(F)F)c4)C(Cc4ccc(F)c(F)c4)C3)CC2)C1 (single isomer, unassigned) [Compound 253]
IC50 [1]: 501 nM
IC50 [2]: 398 nM
IC50 [3]: 5.01 nM

O=C(c1cccs1)N1CCC(N2CCN(C3CCN(C(=O)c4cc(C(F)(F)F)cc(C(F)(F)F)c4)C(Cc4ccc(F)c(F)c4)C3)CC2)C1 (single isomer, unassigned) [Compound 254]
IC50 [1]: 501 nM
IC50 [2]: 251 nM
IC50 [3]: 10 nM

O=C(c1ccsc1)N1CCC(N2CCN(C3CCN(C(=O)c4cc(C(F)(F)F)cc(C(F)(F)F)c4)C(Cc4ccc(F)c(F)c4)C3)CC2)C1 (single isomer, unassigned) [Compound 257]
IC50 [1]: 631 nM
IC50 [2]: 316 nM
IC50 [3]: 10 nM

O=C(c1ccoc1)N1CCC(N2CCN(C3CCN(C(=O)c4cc(C(F)(F)F)cc(C(F)(F)F)c4)C(Cc4ccc(F)c(F)c4)C3)CC2)C1 (single isomer, unassigned) [Compound 258]
IC50 [1]: 398 nM
IC50 [2]: 501 nM
IC50 [3]: 12.6 nM

O=C(c1cnccn1)N1CCC(N2CCN(C3CCN(C(=O)c4cc(C(F)(F)F)cc(C(F)(F)F)c4)C(Cc4ccc(F)c(F)c4)C3)CC2)C1 (single isomer, unassigned) [Compound 259]
IC50 [1]: 501 nM
IC50 [2]: 2000 nM
IC50 [3]: 12.6 nM

Cn1cccc(C(=O)N2CCC(N3CCN(C4CCN(C(=O)c5cc(C(F)(F)F)cc(C(F)(F)F)c5)C(Cc5ccc(F)c(F)c5)C4)CC3)C2)c1=O (single isomer, unassigned) [Compound 260]
IC50 [1]: 3980 nM
IC50 [2]: 398 nM
IC50 [3]: 15.8 nM

O=C(C1CCOC1)N1CCC(N2CCN(C3CCN(C(=O)c4cc(C(F)(F)F)cc(C(F)(F)F)c4)C(Cc4ccc(F)c(F)c4)C3)CC2)C1 (single isomer, unassigned) [Compound 269]
IC50 [1]: 6310 nM
IC50 [2]: 2510 nM
IC50 [3]: 3.98 nM

O=C(C1CCOC1)N1CCC(N2CCN(C3CCN(C(=O)c4cc(C(F)(F)F)cc(C(F)(F)F)c4)C(Cc4ccc(F)c(F)c4)C3)CC2)C1 (single isomer, unassigned) [Compound 270]
IC50 [1]: 1260 nM
IC50 [2]: 2000 nM
IC50 [3]: 3.16 nM

O=C(C1CCOC1)N1CCC(N2CCN(C3CCN(C(=O)c4cc(C(F)(F)F)cc(C(F)(F)F)c4)C(Cc4ccc(F)c(F)c4)C3)CC2)C1 (single isomer, unassigned) [Compound 281]
IC50 [1]: 3160 nM
IC50 [2]: 3980 nM
IC50 [3]: 5.01 nM

O=C(C1CCOC1)N1CCC(N2CCN(C3CCN(C(=O)c4cc(C(F)(F)F)cc(C(F)(F)F)c4)C(Cc4ccc(F)c(F)c4)C3)CC2)C1 (single isomer, unassigned) [Compound 285]
IC50 [1]: 631 nM
IC50 [2]: 3160 nM
IC50 [3]: 6.31 nM

O=C(C1CCOC1)N1CCC(N2CCN(C3CCN(C(=O)c4cc(C(F)(F)F)cc(C(F)(F)F)c4)C(Cc4ccc(Cl)c(Cl)c4)C3)CC2)C1 (single isomer, unassigned) [Compound 290]
IC50 [1]: 398 nM
IC50 [2]: 1580 nM
IC50 [3]: 3.98 nM

O=C(C1CCOC1)N1CCC(N2CCN(C3CCN(C(=O)c4cc(C(F)(F)F)cc(C(F)(F)F)c4)C(Cc4ccc(Cl)c(Cl)c4)C3)CC2)C1 (single isomer, unassigned) [Compound 330]
IC50 [1]: 398 nM
IC50 [2]: 631 nM
IC50 [3]: 3.16 nM

O=C(C1CCOC1)N1CCC(N2CCN(C3CCN(C(=O)c4cc(C(F)(F)F)cc(C(F)(F)F)c4)C(Cc4ccc(Cl)c(Cl)c4)C3)CC2)C1 (single isomer, unassigned) [Compound 331]
IC50 [1]: 251 nM
IC50 [2]: 2000 nM
IC50 [3]: 3.16 nM

O=C(C1CCCCC1)N1CCC(N2CCN(C3CCN(C(=O)c4cc(C(F)(F)F)cc(C(F)(F)F)c4)C(Cc4ccc(F)c(F)c4)C3)CC2)C1 (single isomer, unassigned) [Compound 357]
IC50 [1]: 794 nM
IC50 [2]: 3160 nM
IC50 [3]: 10 nM

CC(C)(C)C(=O)N1CCC(N2CCN(C3CCN(C(=O)c4cc(C(F)(F)F)cc(C(F)(F)F)c4)C(Cc4ccc(F)c(F)c4)C3)CC2)C1 (single isomer, unassigned) [Compound 364]
IC50 [1]: 631 nM
IC50 [2]: 2000 nM
IC50 [3]: 7.94 nM

CC(C)(C)C(=O)N1CCC(N2CCN([C@@H]3CCN(C(=O)c4cc(C(F)(F)F)cc(C(F)(F)F)c4)[C@H](Cc4ccc(F)c(F)c4)C3)CC2)C1 (single isomer, unassigned) [Compound 365]
IC50 [1]: 501 nM
IC50 [2]: 2510 nM
IC50 [3]: 7.94 nM

Cn1cccc1C(=O)N1CCC(N2CCN(C3CCN(C(=O)c4cc(C(F)(F)F)cc(C(F)(F)F)c4)C(Cc4ccc(F)c(F)c4)C3)CC2)C1 (single isomer, unassigned) [Compound 366]
IC50 [1]: 100 nM
IC50 [2]: 2000 nM
IC50 [3]: 6.31 nM
